According to ChEMBL document CHEMBL5113532, “Design and Characterization of a Natural Arf-GEFs Inhibitor Prodrug CHNQD-01255 with Potent Anti-Hepatocellular Carcinoma Efficacy In Vivo” (J Med Chem, 2022):
Values after ≈ are worked out from the molar mass of the structure shown.

Assays:
HepG2 = test: Antiproliferative activity against human HepG2 cells by MTT assay; type: functional, cell-based
Bel-7402 = test: Antiproliferative activity against human Bel-7402 cells by MTT assay; type: functional, cell-based
[1] = Solubility of the compound in saline/PEG400 (80/20% V/V) at pH 7.4; type: physicochemical
[2] = Solubility of the compound in 0.9% NaCl at pH 7.4; type: physicochemical
[3] = Solubility of the compound in saline/solutol HS-15 (95/5% V/V) at pH 7.4; type: physicochemical
[4] = Solubility of the compound in PBS/DMSO (95/5% V/V) at pH 7.2 to 7.4; type: physicochemical
[5] = Solubility of the compound in saline/DMSO (95/5% V/V) at pH 7.4; type: physicochemical
[6] = Solubility of the compound in saline/PEG400 (95/5% V/V) at pH 7.4; type: physicochemical
[7] = Solubility of the compound in saline/solutol HS-15 (90/10% V/V) at pH 7.4; type: physicochemical
[8] = Solubility of the compound in saline/DMSO/solutol HS-15 (85/5/10% V/V/V) at pH 7.4; type: physicochemical

SMILES	IC50 (HepG2)	IC50 (Bel-7402)	also measured
C[C@H]1CCC/C=C/[C@@H]2C[C@H](OC(=O)OCc3cccnc3)C[C@H]2[C@H](OC(=O)OCc2cccnc2)/C=C/C(=O)O1	> 1000 nM	430 nM	–
C[C@H]1CCC/C=C/[C@@H]2C[C@H](OC(=O)c3cncc(F)c3)C[C@H]2[C@H](O)/C=C/C(=O)O1	680 nM	–	–
C[C@H]1CCC/C=C/[C@@H]2C[C@H](OC(=O)c3ccncc3)C[C@H]2[C@H](OC(=O)c2ccncc2)/C=C/C(=O)O1	> 1000 nM	–	–
COc1cccc2c1C(=O)c1c(O)c3c(c(O)c1C2=O)C[C@@](O)(C(=O)CO)C[C@@H]3O[C@H]1C[C@H](N)[C@H](O)[C@H](C)O1 [DOXORUBICIN]	390 nM	> 1000 nM	–
C[C@H]1CCC/C=C/[C@@H]2C[C@H](OC(=O)OCCc3cccnc3)C[C@H]2[C@H](O)/C=C/C(=O)O1	850 nM	> 1000 nM	–
C[C@H]1CCC/C=C/[C@@H]2C[C@H](OC(=O)c3cccnc3)C[C@H]2[C@H](O)/C=C/C(=O)O1	950 nM	390 nM	solubility [1]: < 1000 µg/mL; solubility [2]: < 1000 µg/mL; solubility [3]: < 1000 µg/mL; solubility [4]: < 1000 µg/mL; solubility [5]: < 1000 µg/mL; solubility [6]: < 1000 µg/mL; solubility [7]: < 1000 µg/mL; solubility [8]: 3000 µg/mL (≈ 7780 µM)
C[C@H]1CCC/C=C/[C@@H]2C[C@H](OC(=O)OCc3cncc(F)c3)C[C@H]2[C@H](O)/C=C/C(=O)O1	> 1000 nM	–	–
C[C@H]1CCC/C=C/[C@@H]2C[C@H](OC(=O)NCc3ccccc3)C[C@H]2[C@H](O)/C=C/C(=O)O1	> 1000 nM	–	–
C[C@H]1CCC/C=C/[C@@H]2C[C@H](OC(=O)c3ccccn3)C[C@H]2[C@H](O)/C=C/C(=O)O1	290 nM	–	–
C[C@H]1CCC/C=C/[C@@H]2C[C@H](O)C[C@H]2[C@H](OC(=O)c2ccccn2)/C=C/C(=O)O1	960 nM	–	–
C[C@H]1CCC/C=C/[C@@H]2C[C@H](OC(=O)OCc3ccncc3)C[C@H]2[C@H](O)/C=C/C(=O)O1	> 1000 nM	> 1000 nM	–
C[C@H]1CCC/C=C/[C@@H]2C[C@H](OC(=O)c3cccnc3)C[C@H]2[C@H](OC(=O)c2cccnc2)/C=C/C(=O)O1	> 1000 nM	> 1000 nM	–
C[C@H]1CCC/C=C/[C@@H]2C[C@H](OC(=O)c3ccncc3)C[C@H]2[C@H](O)/C=C/C(=O)O1	460 nM	–	–
C[C@H]1CCC/C=C/[C@@H]2C[C@H](OC(=O)OCc3cnc4ccccc4c3)C[C@H]2[C@H](O)/C=C/C(=O)O1	> 1000 nM	–	–
C[C@H]1CCC/C=C/[C@@H]2C[C@H](O)C[C@H]2[C@H](OC(=O)OCc2cccnc2)/C=C/C(=O)O1	> 1000 nM	270 nM	–
C[C@H]1CCC/C=C/[C@@H]2C[C@H](OC(=O)OCCSSCCO)C[C@H]2[C@H](O)/C=C/C(=O)O1	> 1000 nM	–	–
